Measured values published in patent US12029728B2, “Small molecules with anti-protozoan activity” (New Mexico Tech University Research Park Corporation, priority 2018, dated 2024).

Tested on: T. cruzi epimastigotes
Test: T. cruzi epimastigote toxicity, visually assessed
Format: cell-based, Trypanosoma cruzi
Conditions: 48 hours at 30° C.
Description: A 1:20 working dilution of T. cruzi epimastigotes was prepared in LIT1029 medium from a saturated (˜4×10^6 cells/mL) culture. 100 μL of the 1:20 working dilution was plated, and the epimastigotes were incubated with a compound of the disclosure at varying concentrations for 48 hours at 30° C. Following T. cruzi epimastigote treatment with a compound of the disclosure, the toxicity of compounds towards T. cruzi epimastigotes was visually assessed.

Question: `O=C(NO)C(c1ccccc1)c1c(-c2ccc3ccccc3c2)[nH]c2ccccc12` (stereo not shown) [Compound 2, N-hydroxy-2-(2-(naphthalen-2-yl)-1H-indol-3-yl)-2-phenylacetamide] was tested. Which “Concentration at which T. cruzi epimastigote death is greater than or equal to ~99%” value did it give?
Answer: 6 µM
